Laboratory results: patent US20060069132A1, “Azolecarboxamide herbicides” (priority 2004, published 2006)

Columns and labels:
goosegrass = test: Test C pre-/postemergence herbicide test; type: in vivo, Eleusine indica; conditions: for Goosegrass plant response rating: 500 g ai/ha
How it was run: (§1)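 Pre/post spray; non-phytotoxic solvent + surfactant. Post-timing 1–4 leaves, 2–18 cm. Read-out: visual % control vs untreated, day 12–14, greenhouse.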

redroot pigweed = test: Test A pre-/postemergence herbicide test; type: in vivo, Amaranthus retroflexus
How it was run: (§2)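 Greenhouse injury scoring (0–100, complete control = 100) at approximately ten days follows simultaneous pre- and postemergence application. Soil received a directed spray after seeding; seedlings of 2–10 cm at the one- to two-leaf stage were sprayed to runoff.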

giant foxtail [1] = test: Test A pre-/postemergence herbicide test; type: in vivo, Setaria faberi
How it was run: as §2

giant foxtail [2] = test: Test C pre-/postemergence herbicide test; type: in vivo, Setaria faberi; conditions: for Foxtail, Giant plant response rating: 500 g ai/ha
How it was run: as §1

bermudagrass = test: Test C pre-/postemergence herbicide test; type: in vivo, Cynodon dactylon; conditions: for Bermudagrass plant response rating: 500 g ai/ha
How it was run: as §1

large crabgrass = test: Test C pre-/postemergence herbicide test; type: in vivo, Digitaria sanguinalis; conditions: for Crabgrass, Large plant response rating: 500 g ai/ha
How it was run: as §1

ducksalad = test: Test C flooded paddy test; type: in vivo, Heteranthera limosa; conditions: for Plant response rating, Ducksalad: visual rating after 12 to 14 days
pigweed = test: Test C pre-/postemergence herbicide test; type: in vivo, Amaranthus retroflexus; conditions: for Pigweed plant response rating: 500 g ai/ha
How it was run: as §1

woolly cupgrass = test: Test C pre-/postemergence herbicide test; type: in vivo, Eriochloa villosa; conditions: for Cupgrass, Woolly plant response rating: 500 g ai/ha
How it was run: as §1

[3] = 125 g ai/ha, scale 0 (no effect) to 100 (complete control), visual, 12 to 14 days, preemergence
[4] = Postemergence, 250 g ai/ha, scale 0 to 100, 0 no effect, 100 complete control
[5] = Preemergence, scale 0 to 100, 0 no effect, 100 complete control
[6] = postemergence, 125 g ai/ha, scale 0 to 100
[7] = postemergence, 62 g ai/ha, scale 0 to 100
[8] = Postemergence, 500 g ai/ha, 0 to 100 scale, 0 no effect, 100 complete control
[9] = Postemergence, 2000 g ai/ha, 0 to 100 scale, 0 no effect, 100 complete control
[10] = Preemergence, 500 g ai/ha, visual rating, 0 to 100 scale (0 no effect, 100 complete control)
[11] = Preemergence, 2000 g ai/ha, 0 to 100 scale, 0 no effect, 100 complete control
[12] = 250 g ai/ha, scale 0 to 100 (0 no effect, 100 complete control), visual, 12 to 14 days, preemergence
[13] = 62 g ai/ha, scale 0 to 100 (0 no effect, 100 complete control)
[14] = 125 g ai/ha, scale of 0 to 100, 0 is no effect, 100 is complete control
[15] = 500 g ai/ha, scale 0 to 100 (0 no effect, 100 complete control)
[16] = Postemergence, 125 g ai/ha, scale 0 to 100, 0 no effect, 100 complete control

CCOC(=O)c1cc(NC(=O)c2cc(C(C)(C)C)nn2CC)ccc1OC [Compound 96]
Plant response rating (0 = no effect, 100 = complete control), Goosegrass (goosegrass; 62 g ai/ha, preemergence): 30 | Plant response rating, Goosegrass (goosegrass; [3]): 80 | Goosegrass plant response rating (goosegrass; Postemergence, scale 0 to 100): 5 | Plant response rating, Goosegrass (goosegrass; [4]): 5 | Goosegrass plant response rating (goosegrass; [5]): 95 | Plant response rating, Goosegrass (goosegrass; [6]): 5 | Plant response rating, Goosegrass (goosegrass; [7]): 5 | Pigweed plant response rating (redroot pigweed; [8]): 95 | Plant response rating, Pigweed (redroot pigweed; [9]): 100 | Pigweed plant response rating (redroot pigweed; [10]): 100 | Pigweed plant response rating (redroot pigweed; [11]): 100 | Foxtail, Giant plant response rating (giant foxtail [1]; [8]): 60 | Plant response rating, Foxtail, Giant (giant foxtail [1]; [9]): 80 | Foxtail, Giant plant response rating (giant foxtail [1]; [10]): 75 | Foxtail, Giant plant response rating (giant foxtail [1]; [11]): 95 | Plant response rating (0 = no effect, 100 = complete control), Foxtail, Giant (giant foxtail [2]; 62 g ai/ha, preemergence): 70 | Plant response rating, Foxtail, Giant (giant foxtail [2]; [3]): 100 | Plant response rating, Foxtail, Giant (giant foxtail [2]; [12]): 100 | Foxtail, Giant plant response rating (giant foxtail [2]; Postemergence, scale 0 to 100): 60 | Plant response rating, Foxtail, Giant (giant foxtail [2]; [4]): 45 | Foxtail, Giant plant response rating (giant foxtail [2]; [5]): 100 | Plant response rating, Foxtail, Giant (giant foxtail [2]; [6]): 20 | Plant response rating, Foxtail, Giant (giant foxtail [2]; [7]): 10 | Plant response rating (0 = no effect, 100 = complete control), Bermudagrass (bermudagrass; 62 g ai/ha, preemergence): 40 | Plant response rating, Bermudagrass (bermudagrass; [3]): 80 | Plant response rating, Bermudagrass (bermudagrass; [12]): 85 | Bermudagrass plant response rating (bermudagrass; Postemergence, scale 0 to 100): 5 | Plant response rating, Bermudagrass (bermudagrass; [4]): 5 | Bermudagrass plant response rating (bermudagrass; [5]): 100 | Plant response rating, Bermudagrass (bermudagrass; [6]): 0 | Plant response rating, Bermudagrass (bermudagrass; [7]): 0 | Plant response rating (0 = no effect, 100 = complete control), Crabgrass, Large (large crabgrass; 62 g ai/ha, preemergence): 85 | Plant response rating, Crabgrass, Large (large crabgrass; [3]): 100 | Plant response rating, Crabgrass, Large (large crabgrass; [12]): 100 | Crabgrass, Large plant response rating (large crabgrass; Postemergence, scale 0 to 100): 5 | Plant response rating, Crabgrass, Large (large crabgrass; [4]): 5 | Crabgrass, Large plant response rating (large crabgrass; [5]): 100 | Plant response rating, Crabgrass, Large (large crabgrass; [6]): 0 | Plant response rating, Crabgrass, Large (large crabgrass; [7]): 0 | Ducksalad plant response rating (ducksalad; [13]): 45 | Ducksalad plant response rating (ducksalad; [14]): 45 | Ducksalad plant response rating (ducksalad; 250 g ai/ha, scale of 0 to 100, 0 is no effect, 100 is complete control): 75 | Plant response rating, Ducksalad (ducksalad; [15]): 90 | Plant response rating (0 = no effect, 100 = complete control), Pigweed (pigweed; 62 g ai/ha, preemergence): 100 | Plant response rating, Pigweed (pigweed; [3]): 100 | Pigweed plant response rating (pigweed; Postemergence, scale 0 to 100): 100 | Plant response rating, Pigweed (pigweed; [4]): 100 | Pigweed plant response rating (pigweed; [5]): 100 | Plant response rating, Pigweed (pigweed; [6]): 100 | Plant response rating, Pigweed (pigweed; [7]): 70 | Plant response rating (0 = no effect, 100 = complete control), Cupgrass, Woolly (woolly cupgrass; 62 g ai/ha, preemergence): 5 | Plant response rating, Cupgrass, Woolly (woolly cupgrass; [3]): 10 | Plant response rating, Cupgrass, Woolly (woolly cupgrass; [12]): 20 | Cupgrass, Woolly plant response rating (woolly cupgrass; Postemergence, scale 0 to 100): 50 | Plant response rating, Cupgrass, Woolly (woolly cupgrass; [4]): 30 | Cupgrass, Woolly plant response rating (woolly cupgrass; [5]): 70 | Plant response rating, Cupgrass, Woolly (woolly cupgrass; [6]): 30 | Plant response rating, Cupgrass, Woolly (woolly cupgrass; [7]): 5

C#CCNC(=O)c1cccc(NC(=O)c2cc(C(C)(C)C)nn2CC)c1 [Compound 47]
Plant response rating (0 = no effect, 100 = complete control), Goosegrass (goosegrass; 62 g ai/ha, preemergence): 80 | Plant response rating, Goosegrass (goosegrass; [3]): 100 | Plant response rating, Goosegrass (goosegrass; [12]): 100 | Goosegrass plant response rating (goosegrass; Postemergence, scale 0 to 100): 80 | Plant response rating, Goosegrass (goosegrass; [16]): 60 | Plant response rating, Goosegrass (goosegrass; [4]): 60 | Goosegrass plant response rating (goosegrass; [5]): 100 | Plant response rating, Goosegrass (goosegrass; [7]): 50 | Plant response rating, Pigweed (redroot pigweed; [8]): 100 | Plant response rating, Pigweed (redroot pigweed; [9]): 100 | Pigweed plant response rating (redroot pigweed; [10]): 100 | Pigweed plant response rating (redroot pigweed; [11]): 100 | Plant response rating, Foxtail, Giant (giant foxtail [1]; [8]): 90 | Plant response rating, Foxtail, Giant (giant foxtail [1]; [9]): 85 | Foxtail, Giant plant response rating (giant foxtail [1]; [10]): 90 | Foxtail, Giant plant response rating (giant foxtail [1]; [11]): 100 | Plant response rating (0 = no effect, 100 = complete control), Foxtail, Giant (giant foxtail [2]; 62 g ai/ha, preemergence): 40 | Plant response rating, Foxtail, Giant (giant foxtail [2]; [3]): 70 | Plant response rating, Foxtail, Giant (giant foxtail [2]; [12]): 80 | Foxtail, Giant plant response rating (giant foxtail [2]; Postemergence, scale 0 to 100): 70 | Plant response rating, Foxtail, Giant (giant foxtail [2]; [16]): 60 | Plant response rating, Foxtail, Giant (giant foxtail [2]; [4]): 60 | Foxtail, Giant plant response rating (giant foxtail [2]; [5]): 90 | Plant response rating, Foxtail, Giant (giant foxtail [2]; [7]): 60 | Plant response rating (0 = no effect, 100 = complete control), Bermudagrass (bermudagrass; 62 g ai/ha, preemergence): 90 | Plant response rating, Bermudagrass (bermudagrass; [3]): 100 | Plant response rating, Bermudagrass (bermudagrass; [12]): 100 | Bermudagrass plant response rating (bermudagrass; Postemergence, scale 0 to 100): 60 | Bermudagrass plant response rating (bermudagrass; [5]): 100 | Plant response rating, Bermudagrass (bermudagrass; [7]): 60 | Plant response rating (0 = no effect, 100 = complete control), Crabgrass, Large (large crabgrass; 62 g ai/ha, preemergence): 100 | Plant response rating, Crabgrass, Large (large crabgrass; [3]): 100 | Plant response rating, Crabgrass, Large (large crabgrass; [12]): 100 | Crabgrass, Large plant response rating (large crabgrass; Postemergence, scale 0 to 100): 90 | Crabgrass, Large plant response rating (large crabgrass; [5]): 100 | Plant response rating, Crabgrass, Large (large crabgrass; [7]): 90 | Ducksalad plant response rating (ducksalad; [13]): 0 | Ducksalad plant response rating (ducksalad; [14]): 70 | Plant response rating, Ducksalad (ducksalad; 250 g ai/ha, scale 0 to 100 (0 no effect, 100 complete control)): 80 | Plant response rating, Ducksalad (ducksalad; [15]): 80 | Plant response rating (0 = no effect, 100 = complete control), Pigweed (pigweed; 62 g ai/ha, preemergence): 100 | Plant response rating, Pigweed (pigweed; [3]): 100 | Plant response rating, Pigweed (pigweed; [12]): 100 | Pigweed plant response rating (pigweed; Postemergence, scale 0 to 100): 100 | Plant response rating, Pigweed (pigweed; [4]): 100 | Pigweed plant response rating (pigweed; [5]): 100 | Plant response rating, Pigweed (pigweed; [7]): 100 | Plant response rating (0 = no effect, 100 = complete control), Cupgrass, Woolly (woolly cupgrass; 62 g ai/ha, preemergence): 10 | Plant response rating, Cupgrass, Woolly (woolly cupgrass; [3]): 10 | Plant response rating, Cupgrass, Woolly (woolly cupgrass; [12]): 60 | Cupgrass, Woolly plant response rating (woolly cupgrass; Postemergence, scale 0 to 100): 80 | Plant response rating, Cupgrass, Woolly (woolly cupgrass; [16]): 60 | Plant response rating, Cupgrass, Woolly (woolly cupgrass; [4]): 70 | Cupgrass, Woolly plant response rating (woolly cupgrass; [5]): 80 | Plant response rating, Cupgrass, Woolly (woolly cupgrass; [7]): 60
